From patent US10456441B2, “Augmenting the immune response by promoting cell death of immune cells” (The University of Vermont and State Agricultural College, priority 2014, dated 2019)

What was measured:
γδ T cells = experiment: Mixed cultures of γδ T cells and BMDC: γδ T cell activation (IL-17, IFN-γ, CD25); format: cell-based, mice
Method: Cells were washed three times and then rocked with goat anti-rat conjugated magnetic beads at a 10:1 ratio of beads to cell at 4° C. for 45 min. Magnetic depletion was used to remove bead-bound cells. […] After 2 days, cells were removed from anti-TCR-γδ stimulation, supplied with fresh medium plus IL-2, and returned to culture at a density of 0.3×10^6 cells/ml. Cells were counted daily and supplied with fresh media containing 50 units/ml IL-2. […] In addition, in some experiments freshly isolated splenic γδ T cells were prepared using anti-γδ-coated magnetic beads (Miltenyi Biotec) and magnet purification.
(§1) The preparation of bone marrow-derived dendritic cells (BMDC) was done according to the method of Lutz et al. (26) using GM-CSF ([…] PeproTech, Rocky Hill N.J.) or GM-CSF plus IL-4 (10 μg/ml, PeproTech). Cells were used on day 7.
Day 7 γδ T cells and BMDC were cultured either individually or together at a 1:1 ratio (10^6 cells/ml each). To some cultures the following reagents were added: a sonicate of Borrelia burgdorferi (10 μg/ml), zVAD-fmk (MP Biomedical, Santa Ana Calif.) at the doses indicated, necrostatin (50 μM, R&D Systems, Minneapolis, Minn.), anti-TNF-α (10 μg/ml, Calbiochem, Darnstadt, Germany),, anti-IL-1 Receptor antagonist, Anakinra (200 ng/ml, Amgen, Thousand Oaks, Calif.), anti-IL-12 (10 μg/ml, BioLegend San Diego, Calif.), anti-IL-18 (10 μg/ml, MBL, Woburn Mass.), or rat IgG (10 μg/ml Jackson Immunoresearch, West Grove Pa.). Transwell assays were performed using 1×10^6 γδ T cells in 1 ml of complete medium+IL-2 placed in the lower chamber, with 5×10^5 DC in 100 μl placed in the upper chamber. […]
Cytokine levels of IFN-γ, IL-1β, IL-12p40, IL-12p70, IL-17, and TNF-α were detected using the Bio-Plex, MilliPlex, or Luminex immunoassay (Bio-Rad; Millipore-EMD; R&D Systems, Minneapolis, Minn.) according to the manufacturer's protocol. Briefly, samples were run undiluted or diluted 1:10 in RPMI complete media. 50 μl of the magnetic bead working solution was added to each well, then 50 μl of appropriate samples or standards were then added to wells and incubated at room temperature for 30-120 min at 800 rpm on an IKA MS 3 digital shaker. After three washes with 100 μl Bio-Plex wash buffer, incubation with 25 μl of detection antibody solution was done at room temperature for 30-60 min on the shaker. Following another set of three washes, 50 μl of streptavidin-phycoerythrin (PE) in assay buffer was added to each well and incubated as described for the previous step. After an additional three washes, 125 μl of assay buffer was added. Sample data was analyzed with Bio-Plex Manager software.
The following monoclonal antibodies to murine cell surface molecules were purchased from BioLegend: PE-conjugated anti-CD25, APC-conjugated anti-TCR-γδ, and TNF-α neutralizing antibody. Rat IgG was purchased from Jackson Immunoresearch (West Grove, Pa.). For direct staining, single cell suspensions (1×10^6 total cells per staining condition) were washed with cold (4° C.) PBS containing 1% (w/v) BSA fraction V (Sigma) (PBS/1% BSA), incubated with unconjugated rat IgG (50 μg/ml) for 15 min at 4° C., washed again, and then incubated with the appropriate antibodies in PBS/1% BSA. After washing, the cells were fixed with freshly made 1% (v/v) methanol-free formaldehyde (Ted Pella Inc., Redding, Calif.) in PBS/1% BSA.

BMDC = experiment: Cell death of BMDC by TUNEL assay; format: cell-based, mice; conditions: GM-CSF-cultured BMDC, zVAD 50 μM + Necrostatin 50 μM
Method: as §1
(§2) Cell death was examined by terminal deoxynucleotidyl transferase dUTP nick end labeling (TUNEL). Briefly, cells were stained for expression of cell surface molecules, and then fixed with 1% methanol-free formaldehyde followed by 70% ethanol. After washing, the TUNEL reaction was performed by incubating cells in 50 μl of reaction mix containing 10 units of terminal deoxribosyl transferase (TdT), 2.5 mM cobalt chloride in 1× TdT buffer, and 0.2 pmol/μl of FITC-dUTP (Roche, Indianapolis, Ind.) at 37° C. for 1 hour. The cells were washed twice and fixed in 1% methanol-free formaldehyde. Murine thymocytes were included as a positive control for apoptotic cells. Flow cytometry was performed on an LSRII (BD Biosciences, San Jose, Calif.) calibrated with compensation beads (BD Biosciences). Analysis was performed using FlowJo software (Tree Star, Inc., Ashland, Oreg.).

[1] = human trials; cited from earlier work
human DC = experiment: Cell death of human DC from peripheral blood monocytes; format: cell-based; conditions: addition of IL-4 to GM-CSF culture
Method: as §2, with “Human monocytes were obtained as […] cells by magnetic bead purification (Miltenyi Biotech, Auburn, Calif.) from peripheral blood of healthy volunteers. Myeloid DC were prepared by culture of monocytes in AIM V media plus 10% fetal calf serum (HyClone) with 800 U/ml of granulocyte-macrophage colony-stimulating factor (GM-CSF), (BioLegend, San Diego, Calif.) without or with 500 U/ml IL-4 (BioLegend). Cell” for “Cell”

c-FLIP, caspase-8 = target: T1, c-FLIP, caspase-8 (Mus musculus, UniProt O89110); experiment: c-FLIP and active caspases in BMDC (biotin-VAD precipitation, immunoblot); format: cell-based, mice
T1 construct: endogenous in cells; host or cells: bone marrow-derived dendritic cells (BMDC), day 7, grown in GM-CSF with or without IL-4; whole cell lysates and biotin-VAD precipitates
Method: as §1
Day 7 BMDC were lysed in Tris-buffer containing Complete Protease Inhibitor (Roche), 0.2% NP-40 (Roche), and biotin-VAD-fmk (10 μM, MP Biomedicals, Santa Ana, Calif.). Insoluble cell fragments were removed by centrifugation, and the protein concentration of the resulting whole cell lysates was determined by Bradford assay (BioRad, Hercules, Calif.). Whole cell lysates (30 μg per lane) were separated by SDS-PAGE. Precipitation of active caspases was performed by rocking 600 μg of whole cell lysates initially with sepharose 4B beads (Sigma) at 4° C. for 2 hours to remove nonspecific binding of proteins to the beads, followed by overnight rocking incubation with streptavidin-conjugated sepharose beads (Invitrogen) at 4° C. Release of biotin-VAD-fmk-labeled caspases from the streptavidin beads was achieved by heating to 95° C. for 10 min in Laemmli buffer. After gel electrophoresis, proteins were transferred to PVDF membranes (0.2 μm pore size, Bio-Rad), and immunoblots were performed using antibodies (1 μg/ml) against caspase-3, caspase-8 (both Cell Signaling, Danvers, Mass.), caspase-9 (Stressgen, Farmingdale, N.Y.), and RIPK1 (BD Biosciences).

[2] = γδ T cells + BMDC + B. burgdorferi, zVAD+Necrostatin, 20 h
[3] = exogenous TNF-α (2.5 μg/ml) added, absence of Borrelia

T1 sequence (O89110 219-480): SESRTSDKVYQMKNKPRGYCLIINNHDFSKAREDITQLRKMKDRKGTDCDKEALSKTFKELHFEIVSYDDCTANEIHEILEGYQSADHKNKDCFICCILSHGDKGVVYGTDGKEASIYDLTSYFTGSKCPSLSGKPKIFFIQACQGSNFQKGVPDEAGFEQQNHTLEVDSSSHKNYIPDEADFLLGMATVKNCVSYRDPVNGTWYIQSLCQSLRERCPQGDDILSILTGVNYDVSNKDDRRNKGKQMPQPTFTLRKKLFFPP
T1 sequence (O35732 whole entry partner): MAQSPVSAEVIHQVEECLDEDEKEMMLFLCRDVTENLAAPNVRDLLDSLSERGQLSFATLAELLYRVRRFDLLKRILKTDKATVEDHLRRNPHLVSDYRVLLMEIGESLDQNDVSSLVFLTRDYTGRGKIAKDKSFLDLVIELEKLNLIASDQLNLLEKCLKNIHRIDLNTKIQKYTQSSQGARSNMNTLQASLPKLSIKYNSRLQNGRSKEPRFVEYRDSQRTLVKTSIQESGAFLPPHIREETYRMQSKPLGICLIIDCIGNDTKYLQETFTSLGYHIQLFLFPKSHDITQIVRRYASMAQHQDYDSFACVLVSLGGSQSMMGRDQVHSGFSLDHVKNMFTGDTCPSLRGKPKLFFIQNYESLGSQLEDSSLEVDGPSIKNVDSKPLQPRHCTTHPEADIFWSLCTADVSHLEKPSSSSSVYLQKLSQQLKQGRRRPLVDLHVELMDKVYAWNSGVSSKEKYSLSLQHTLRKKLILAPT

CN1C(=O)C(Cc2c[nH]c3ccccc23)NC1=S (centres unmarked) [Necrostatin]
production of these cytokines (TNF-α, IL-17, IFN-γ); toxicity check (γδ T cells; Necrostatin with Borrelia in the absence of zVAD): did not block production | TNF-α production by zVAD-treated BMDC (γδ T cells; [2]): reversed | production of IFN-γ by γδ T cells (γδ T cells; [2]): reversed | production of IL-17 by γδ T cells (γδ T cells; [2]): reversed | cell death of zVAD-treated BMDC (BMDC): rescued them from cell death

C[C@H](NC(=O)C(=O)Nc1ccccc1C(C)(C)C)C(=O)N[C@@H](CC(=O)O)C(=O)COc1c(F)c(F)cc(F)c1F [IDN-6556]
preserving liver function during hepatitis C virus infection [1]: showing promise | serious side-effects [1]: without exhibiting serious side-effects

IL-4: cytokine added with GM-CSF during generation of BMDC; upregulates c-FLIP
ability of BMDC to activate Borrelia-stimulated γδ T cells (γδ T cells; BMDC grown with GM-CSF+IL-4, absence or presence of zVAD): much less able to activate | zVAD-induced death of human DC (human DC): blocked | level of c-FLIP (c-FLIP, caspase-8; BMDC grown in GM-CSF+IL-4 vs GM-CSF, 7 days): considerably increased | level of active caspase-8 (c-FLIP, caspase-8; BMDC grown in GM-CSF+IL-4 vs GM-CSF, bVAD precipitates): increase in the level of active caspase-8 | levels of total cellular caspase-8, caspase-9, or caspase-3 (c-FLIP, caspase-8; whole cell lysates, BMDC grown in GM-CSF or GM-CSF+IL-4): no difference

TNF-α
production of IFNγ by γδ T cells (γδ T cells; [3]): did not augment production | production of IL-17 by γδ T cells (γδ T cells; [3]): did not augment production
